The results in this text go back to patent US8207172B2 (Bayer Intellectual Property GmbH, priority 2004, dated 2012).

The test system of test [1] is A431 cells (human epidermoid carcinoma). The experiment in a line: In vitro tumor cell proliferation assay (Cell Titer-Glo luminescent cell viability), A431. In kind it is cell-based. Conditions: A-431, 72 h, 72 hours of drug exposure, ATP luminescence readout, read-out: IC50, anti-proliferative activity (inhibition of cell proliferation). In a few lines: (§1)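 CellTiter-Glo luminescence (ATP content of metabolically active cells) after 72 h compound exposure at 37° C gave IC50s.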

Test [2] deals with BT474 (human breast carcinoma). The experiment in a line: In vitro tumor cell proliferation assay (Cell Titer-Glo luminescent cell viability), BT474. In kind it is cell-based. Conditions: BT-474, 72 h, BT474 cells, 72 hours of drug exposure, ATP luminescence readout, read-out: IC50, anti-proliferative activity (inhibition of cell proliferation). In a few lines: as §1

For `CN1CCN(CCn2ncc3c2CCc2c-3sc3ncnc(Nc4ccc(OCc5ccc(F)cc5)c(Cl)c4)c23)CC1` [Example 322, N-{3-chloro-4-[(4-fluorobenzyl)oxy]phenyl}-3-[2-(4-methylpiperazin-1-yl)ethyl]-4,5-dihydro-3H-pyrimido[5′,4′:4,5]thieno[2,3-e]indazol-6-amine trifluoroacelate], the IC50 was at most 5 µM in test [1] and at most 1 µM in test [2].

For the compound `Cc1cc(Nc2ncnc3sc4c(c23)CCc2c-4cnn2CCN2CCN(C)CC2)ccc1OCc1cccc(F)c1` [Example 323, N-{4-[(3-fluorobenzyl)oxy]-3-methylphenyl}-3-[2-(4-methylpiperazin-1-yl)ethyl]-4,5-dihydro-3H-pyrimido[5′,4′:4,5]thieno[2,3-e]indazol-6-amine], the results for the IC50 in test [1] and in test [2] were at most 5 µM and at most 1 µM, respectively.

As to `COc1cccc(COc2ccc(Nc3ncnc4sc5c(c34)CCc3nn(CCN4CCN(C)CC4)cc3-5)cc2Cl)c1` [Example 324, N-{3-chloro-4-[(3-methoxybenzyl)oxy]phenyl}-2-[2-(4-methylpiperazin-1-yl)ethyl]-4,5-dihydro-2H-pyrimido[5′,4′:4,5]thieno[2,3-e]indazol-6-amine], the IC50 in test [1] and in test [2] was at most 5 µM in each case.

Consider `CN1CCN(CCn2cc3c(n2)CCc2c-3sc3ncnc(Nc4ccc(OCc5ccc(F)cc5)c(Cl)c4)c23)CC1` [Example 326, N-{3-chloro-4-[(4-fluorobenzyl)oxy]phenyl}-2-[2-(4-methylpiperazin-1-yl)ethyl]-4,5-dihydro-2H-pyrimido[5′,4′:4,5]thieno[2,3-e]indazol-6-amine], for which the IC50 in test [1] and in test [2] was at most 5 µM each time.

`CN1CCN(CCn2cc3c(n2)CCc2c-3sc3ncnc(Nc4ccc5nn(Cc6cccc(F)c6)cc5c4)c23)CC1` [Example 327, N-[2-(3-fluorobenzyl)-2H-indazol-5-yl]-2-[2-(4-methylpiperazin-1-yl)ethyl]-4,5-dihydro-2H-pyrimido[5′,4′:4,5]thieno[2,3-e]indazol-6-amine]: the IC50 in test [1] and in test [2] was at most 5 µM throughout.

As to `CN1CCN(CCn2cc3c(n2)CCc2c-3sc3ncnc(Nc4ccc(OCc5cccc(C(F)(F)F)c5)c(Cl)c4)c23)CC1` [Example 328, N-(3-chloro-4-{[3-(trifluoromethyl)benzyl]oxy}phenyl)-2-[2-(4-methylpiperazin-1-yl)ethyl]-4,5-dihydro-2H-pyrimido[5′,4′:4,5]thieno[2,3-e]indazol-6-amine], the IC50 in test [1] and in test [2] was at most 5 µM each time.

`Cc1ccc(Nc2ncnc3sc4c(c23)CCc2nn(CCN3CCN(C)CC3)cc2-4)cc1O` [Example 329, 2-methyl-5-({2-[2-(4-methylpiperazin-1-yl)ethyl]-4,5-dihydro-2H-pyrimido[5′,4′:4,5]thieno[2,3-e]indazol-6-yl}amino)phenol]: the IC50 in test [1] and in test [2] was at most 5 µM in each case.

With `Cc1cccc(COc2ccc(Nc3ncnc4sc5c(c34)CCc3nn(CCN4CCN(C)CC4)cc3-5)cc2Cl)c1` [Example 330, N-{3-chloro-4-[(3-methylbenzyl)oxy]phenyl}-2-[2-(4 methylpiperazin-1-yl)ethyl]-4,5-dihydro-2H-pyrimido[5′,4′:4,5]thieno[2,3-e]indazol-6-amine], the IC50 in test [1] and in test [2] was at most 5 µM throughout.

On to `CN1CCN(CCn2cc3c(n2)CCc2c-3sc3ncnc(Nc4ccc(OCc5ccc(Cl)cc5)c(Cl)c4)c23)CC1` [Example 331, N-{3-chloro-4-[(4-chlorobenzyl)oxy]phenyl}-2-[2-(4-methylpiperazin-1-yl)ethyl]-4,5-dihydro-2H-pyrimido[5′,4′:4,5]thieno[2,3-e]indazol-6-amine], for which the IC50 in test [1] is at most 5 µM; in test [2], at most 1 µM.
